Measurements from patent publication US11446298B2, “Pyrimidine derivatives” (Idorsia Pharmaceuticals Ltd, priority 2017, dated 2022).

How the values were obtained:
Format in all cases: cell-based
[1] = biological target: T1, EP2 (Homo sapiens, UniProt P43116); test: hEP2 cAMP Assay (SF295 glioblastoma cells, HTRF cAMP, PGE2 75 nM); conditions: antagonistic activity, PGE2 75 nM (EC80)
T1 construct: SF295 glioblastoma cells express high endogenous EP2 and no EP4; host or cells: SF295 glioblastoma cells
T1 sequence (P43116 whole entry): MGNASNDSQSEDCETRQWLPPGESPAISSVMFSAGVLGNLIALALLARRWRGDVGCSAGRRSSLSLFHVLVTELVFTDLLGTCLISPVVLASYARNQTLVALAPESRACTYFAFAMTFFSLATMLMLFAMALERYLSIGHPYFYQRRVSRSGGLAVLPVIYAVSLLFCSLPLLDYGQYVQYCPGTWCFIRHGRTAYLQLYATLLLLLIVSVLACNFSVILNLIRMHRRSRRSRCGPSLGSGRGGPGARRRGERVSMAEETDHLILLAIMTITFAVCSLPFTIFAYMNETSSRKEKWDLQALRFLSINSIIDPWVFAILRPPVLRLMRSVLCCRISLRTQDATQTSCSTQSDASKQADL
In short: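 IC50 values derive from duplicate-point curves of percent cAMP relative to DMSO, read by HTRF (665/620 nm) against a cAMP calibrator. Compounds (30 μM to 0.01 nM ranges) were given 45 min at room temperature before 30 min with 75 nM PGE2, in EP2-only SF295 cells with 2 mM IBMX.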

[2] = biological target: T2, PTGER4 (EP4) (Homo sapiens, UniProt P35408); test: hEP4 b-Arrestin Assay (PathHunter HEK 293 PTGER4 b-arrestin cells, PGE2 20 nM); conditions: antagonistic activity, beta-arrestin assay, HEK 293 PTGER4 cells, PGE2 20 nM (EC80); read-out: hEP4 b-arr IC50
T2 construct: host or cells: HEK 293 (PathHunter, stably transfected)
T2 sequence (P35408 whole entry): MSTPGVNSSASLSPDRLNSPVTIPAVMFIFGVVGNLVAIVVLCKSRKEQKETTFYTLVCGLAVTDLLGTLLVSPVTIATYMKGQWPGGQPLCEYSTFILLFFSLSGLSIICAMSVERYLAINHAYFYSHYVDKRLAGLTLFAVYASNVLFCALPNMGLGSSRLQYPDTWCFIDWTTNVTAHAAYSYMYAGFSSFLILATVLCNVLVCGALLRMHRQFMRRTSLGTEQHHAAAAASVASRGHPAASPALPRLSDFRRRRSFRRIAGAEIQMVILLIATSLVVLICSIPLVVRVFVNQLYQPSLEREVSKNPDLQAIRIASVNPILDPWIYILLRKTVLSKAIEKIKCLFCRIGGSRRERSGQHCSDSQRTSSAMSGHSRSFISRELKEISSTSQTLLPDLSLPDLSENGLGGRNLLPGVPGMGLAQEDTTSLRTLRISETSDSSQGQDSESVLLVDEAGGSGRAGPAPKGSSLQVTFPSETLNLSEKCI
Method: The antagonistic activities of the compounds of formula (I) on the EP2 and EP4 receptors are also determined in accordance with the following experimental method.
The assay is using the PathHunter™ HEK 293 PTGER2 and PTGER4 b-arrestin cell lines from DiscoverX. The system is based on the Enzyme Fragment Complementation Technology. Two complementing fragments of the b-galactosidase enzyme are expressed within stably transfected cells. The larger portion of b-gal, termed EA for Enzyme Acceptor, is fused to the C-terminus of b-arrestin 2. The smaller fragment, termed ProLink™ tag, is fused to PTGER2 (EP2) or PTRGER4 (EP4) at the C-terminus. Upon activation, b-arrestin is recruited which forces the interaction of ProLink and EA, allowing complementation of the two fragments of b-gal and the formation of a functional enzyme which is capable of hydrolysing the substrate and generating a chemiluminescent signal.
The HEK 293 PTGER4 b-arrestin cells (DiscoverX 93-030-4C1) are detached from culture dishes with a cell dissociation buffer (Invitrogen, 13151-014), and collected in growing medium (GM: DMEM+Glutamax-I (Invitrogen 32430)/10% FCS, 1% Penicilin/streptomycin). 5000 cells per well of a 384 well plate (white with white bottom Greiner 781080) are seeded in 20 ul per well of GM. Plate is incubated at 37° C., 5% CO2 for 24 hours.
Stock solutions of test compounds are made at a concentration of 10 mM in DMSO, and serially diluted in DMSO to concentrations required for inhibition dose response curves (tested concentration range 10 μM-2 nM or 1 μM-0.2 nM).
PGE2 (Cayman 14010, stock solution: 100 μM in DMSO) is used as agonist at 20 nM final concentration, corresponding to EC80.
Five microliters of diluted compounds are transferred into the assay plate. Plate is pre-incubated 15 minutes at 37° C. Then five microliters of PGE2 (final conc. 20 nM) are transferred into the assay plate. Plate is incubated 120 minutes at 37° C.
PathHunter Glo Detection Kit components are thawed and mix according to manufacturer's instructions: 1 part Galacton Star Substrate with 5 parts Emerald II™ Solution, and 19 parts of PathHunter Cell Assay Buffer, respectively. Twelve μl of reagent are transferred to the assay plate and incubate for 1 hour at room temperature in the dark. Luminescence counts are read on a BMG Fluostar Optima reader according to manufacturer's instructions.
For each compound concentration calculate of the percentage of activity compared to DMSO control value as average ±STDEV. (each concentration is measured in duplicate)
IC50 values and curves are generated with XLfit software (IDBS) using Dose-Response One Site model 203. When compounds were measured multiple times, mean values are given.

[3] = biological target: T3, PTGER2 (EP2) (Homo sapiens, UniProt P43116); test: hEP2 b-Arrestin Assay (PathHunter HEK 293 PTGER2 b-arrestin cells, PGE2 5 μM); conditions: antagonistic activity, beta-arrestin assay, HEK 293 PTGER2 cells, PGE2 5 μM (EC80); read-out: hEP2 b-arr IC50
T3 construct: host or cells: HEK 293 (PathHunter, stably transfected)
T3 sequence (P43116 whole entry): as the sequence (P43116 whole entry) above
In short: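 PathHunter enzyme-fragment complementation in HEK 293 cells: compounds (10 μM-2 nM or 1 μM-0.2 nM) pre-incubated 15 min at 37 °C, then 5 μM PGE2 (EC80) for 120 min at 37 °C. Chemiluminescence read after 1 h detection; IC50 from duplicate dose-response fits, means of repeats.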

[4] = biological target: T4, EP4 (Homo sapiens, UniProt P35408); test: hEP4 cAMP Assay (BT549 breast cancer cells, HTRF cAMP, PGE2 6 nM); conditions: antagonistic activity, PGE2 6 nM (EC80)
T4 construct: BT549 breast cancer cells, express high endogenous EP4 levels and very low EP2 levels; host or cells: BT549 breast cancer cells
T4 sequence (P35408 whole entry): as the sequence (P35408 whole entry) above
In short: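 Antagonism is measured as inhibition of PGE2 (6 nM final, EC80) cAMP accumulation in EP4-expressing BT549 breast cancer cells, after a 45 min room-temperature compound pre-incubation and 30 min agonist step, with 2 mM IBMX present. HTRF ratio gives cAMP relative to DMSO; IC50 fitted, means over repeat runs.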

IC50 [1] [nM]	IC50 [2] [nM]	IC50 [3] [nM]	IC50 [4] [nM]	Structure (SMILES)
9	56	11	14	CCOc1cc(-c2cc(NCCc3cccc4ccccc34)ncn2)sc1C(=O)O [Example 9, 3-Ethoxy-5-[6-(2-naphthalen-1-yl-ethylamino)-pyrimidin-4-yl]-thiophene-2-carboxylic acid]
24	225	25	138	CCOc1cc(-c2cc(NCCc3c(OC)ccc4nc(C)ccc34)ncn2)sc1C(=O)O [Example 13, 3-Ethoxy-5-{6-[2-(6-methoxy-2-methyl-quinolin-5-yl)-ethylamino]-pyrimidin-4-yl}-thiophene-2-carboxylic acid]
8	934	4	1500	CCOc1cc(-c2cc(NCCc3c(OCC)ccc4ccccc34)ncn2)ccc1C(=O)O [Example 179, 2-Ethoxy-4-{6-[2-(2-ethoxy-naphthalen-1-yl)-ethylamino]-pyrimidin-4-yl}-benzoic acid]
88	149	68	130	CSc1cc(-c2cc(NCCc3ccc(Br)c4ccccc34)ncn2)ccc1C(=O)O [Example 171, 4-{6-[2-(4-Bromo-naphthalen-1-yl)-ethylamino]-pyrimidin-4-yl}-2-methylsulfanyl-benzoic acid]
209	193	142	182	CCOc1cc(-c2cc(NCCc3ccc(Br)c4ccccc34)ncn2)ccc1C(=O)O [Example 182, 4-{6-[2-(4-Bromo-naphthalen-1-yl)-ethylamino]-pyrimidin-4-yl}-2-ethoxy-benzoic acid]
94	12	11	55	CCOc1cc(-c2cc(NCCc3c(OC)ccc4ccccc34)ncn2)sc1/C=C/C(=O)O [Example 118, (E)-3-(3-Ethoxy-5-{6-[2-(2-methoxy-naphthalen-1-yl)-ethylamino]-pyrimidin-4-yl}-thiophen-2-yl)-acrylic acid]
5	308	12	53	CCCc1cc(-c2cc(NCCc3c(OC)ccc4ccccc34)ncn2)ccc1C(=O)O [Example 121, 4-{6-[2-(2-Methoxy-naphthalen-1-yl)-ethylamino]-pyrimidin-4-yl}-2-propyl-benzoic acid]
72	4	61	17	CCOc1cc(-c2cc(NCCc3ccc(OC)c4ccccc34)ncn2)sc1-c1noc(=O)[nH]1 [Example 141, 3-(3-Ethoxy-5-{6-[2-(4-methoxy-naphthalen-1-yl)-ethylamino]-pyrimidin-4-yl}-thiophen-2-yl)-[1,2,4]oxadiazol-5(4H)-one]
20	34	5	43	CCOc1cc(-c2cc(NCCc3c(OC)ccc4ccccc34)ncn2)ccc1-c1noc(=O)[nH]1 [Example 126, 3-(2-Ethoxy-4-{6-[2-(2-methoxy-naphthalen-1-yl)-ethylamino]-pyrimidin-4-yl}-phenyl)-4H-[1,2,4]oxadiazol-5-one]

The next lines start with the molecule.

Structure (SMILES)	IC50 [1] [nM]	IC50 [2] [nM]	IC50 [3] [nM]	IC50 [4] [nM]
CCOc1cc(-c2cc(NCCc3cccc4sccc34)ncn2)sc1C(=O)O [Example 108, 5-[6-(2-Benzo[b]thiophen-4-yl-ethylamino)-pyrimidin-4-yl]-3-ethoxy-thiophene-2-carboxylic acid]	52	225	31	31
CCOc1cc(-c2cc(NCCc3c(N)ccc4ccccc34)ncn2)sc1C(=O)O [Example 78, 5-{6-[2-(2-Amino-naphthalen-1-yl)-ethylamino]-pyrimidin-4-yl}-3-ethoxy-thiophene-2-carboxylic acid]	56	50	41	51
CCOc1nc(-c2cc(NCCc3c(OC)ccc4ccccc34)ncn2)sc1-c1noc(=O)[nH]1 [Example 149, 3-(4-Ethoxy-2-{6-[2-(2-methoxy-naphthalen-1-yl)-ethylamino]-pyrimidin-4-yl}-thiazol-5-yl)-[1,2,4]oxadiazol-5(4H)-one]	15	6	5	52
CCOc1cc(-c2cc(NCCc3c(OC)ccc4ccccc34)ncn2)sc1C(=O)NS(N)(=O)=O [Example 135, 3-Ethoxy-5-(6-((2-(2-methoxynaphthalen-1-yl)ethyl)amino)pyrimidin-4-yl)-N-sulfamoylthiophene-2-carboxamide]	3	23	5	67
CCOc1cc(-c2cc(NCCc3cccc4c(C)c(C)n(C)c34)ncn2)sc1C(=O)O [Example 29, 3-Ethoxy-5-{6-[2-(1,2,3-trimethyl-1H-indol-7-yl)-ethylamino]-pyrimidin-4-yl}-thiophene-2-carboxylic acid]	136	164	241	148
CCOc1cc(-c2cc(NCCc3c(OC)ccc4ncccc34)ncn2)sc1-c1nnn[nH]1 [Example 145, {6-[4-Ethoxy-5-(1H-tetrazol-5-yl)-thiophen-2-yl]-pyrimidin-4-yl}-[2-(6-methoxy-quinolin-5-yl)-ethyl]-amine]	81	18	16	53
CCOc1cc(-c2cc(NCCc3c(C#N)ccc4c(OC)ccc(F)c34)ncn2)sc1C(=O)O [Example 158, 5-{6-[2-(2-Cyano-8-fluoro-5-methoxy-naphthalen-1-yl)-ethylamino]-pyrimidin-4-yl}-3-ethoxy-thiophene-2-carboxylic acid]	286	3	126	3
CCOc1cc(-c2cc(NCCc3ccc(C#N)c4ccccc34)ncn2)sc1C(=O)O [Example 69, 5-{6-[2-(4-Cyano-naphthalen-1-yl)-ethylamino]-pyrimidin-4-yl}-3-ethoxy-thiophene-2-carboxylic acid]	79	48	78	66
CCOc1cc(-c2cc(NCCc3cccc4c3ccn4C)ncn2)sc1C(=O)O [Example 25, 3-Ethoxy-5-{6-[2-(1-methyl-1H-indol-4-yl)-ethylamino]-pyrimidin-4-yl}-thiophene-2-carboxylic acid]	15	145	15	48
CCOc1cc(-c2cc(NCCc3cccc4cccnc34)ncn2)sc1C(=O)O [Example 23, 3-Ethoxy-5-[6-(2-quinolin-8-yl-ethylamino)-pyrimidin-4-yl}-thiophene-2-carboxylic acid]	248	293	303	239
CCOc1cc(-c2cc(NCCc3c(F)ccc4ccccc34)ncn2)sc1C(=O)O [Example 95, 3-Ethoxy-5-{6-[2-(2-fluoro-naphthalen-1-yl)-ethylamino]-pyrimidin-4-yl}-thiophene-2-carboxylic acid]	4	51	8	21
